Test results published in patent US8309121B2, “Dermatological compositions comprising avermectin nanocapsules” (Galderma S.A., priority 2006, dated 2012).

Tests used:
[1] = Solubility of ivermectin in various excipients; type: physicochemical
Description: (§1) There are numerous excipients used in the formulation of emulsions or liposomes which result in degradation of ivermectin. The Table below presents the results of tests of stability and solubility of ivermectin in various excipients: […]

[2] = Stability of ivermectin in various excipients; type: physicochemical; settings: for T 1 month 40° C. content / T 1 month Tambient content / T 3 months 40° C. content / T 3 months Tambient content: T0 in mg/g; for T 1 month 40° C. (% in brackets) / T 1 month Tambient (% in brackets) / T 3 months 40° C. (% in brackets) / T 3 months Tambient (% in brackets): relative to T0
Description: as §1

[3] = cited from earlier work
[4] = in ceteareth-25, ceteareth-6, PEG-8-distearate, PEG-8-stearate, PEG-660-OH-stearate, PEG-4000, polyoxyethylene-10, glycerol monostearate S/E, propylene glycol dicaprylate, cetearyl octanoate, polyglycerol-3-diolate, C18-C36 triglycerides, Gamma cyclodextrin, soybean lecithin, cholesterol, stearic acid; cited from earlier work
[5] = in Labrafac Hydro WL1219 (caprylic/capric triglyceride PEG-4 esters)
[6] = in Mygliol 812 (medium-chain triglycerides of caprylic and capric acids)
[7] = in Solutol HS15 (PEG-15 hydroxystearate)
[8] = in Labrafac Hydro WL1219, 1 month
[9] = in Lipoid S75-3 + benzyl alcohol, 1 month
[10] = in Lipoid S75-3 + benzyl alcohol
[11] = in Ph90H + benzyl alcohol, 1 month

Work on ivermectin yielded a Solubility max ([1]; in Benzyl alcohol) of 32.8 mg/g, a Solubility max ([1]; in Benzyl benzoate) of 44.2 mg/g and a Solubility max ([1]; in Crodamol DA) of 94.2 mg/g. The Solubility max [1, 5] was 70 mg/g, the Solubility max ([1]; in Miglyol 812) was 17.9 mg/g and the “Solubility (in words)” value [1, 6] was “relatively low solubility”. The Solubility max [1, 7] was 10.8 mg/g, the “Degradation by hydrogenated lecithins (in words)” value ([2]; hydrogenated lecithins, studies of Example 1) was “do not degrade” and the “T 1 month 40° C. content” value ([2]; in Benzyl alcohol, 1 month) was 9.7. The “T 1 month 40° C. (% in brackets)” value ([2]; in Benzyl alcohol, 1 month) was “(98%)”, the “T 1 month Tambient content” value ([2]; in Benzyl alcohol, 1 month) was 9.8 and the “T 1 month Tambient (% in brackets)” value ([2]; in Benzyl alcohol, 1 month) was “(99%)”. The T0 content ([2]; in Benzyl alcohol) was 9.9 mg/g, the “Stability (in words)” value ([2]; in Crodamol DA) was “Stable over 1 month” and the T0 content [2, 5] was 9.0 mg/g. For the same substance, the “T 1 month 40° C. content” value [2, 8] was 6.7, the “T 1 month 40° C. (% in brackets)” value [2, 8] was “(75%)” and the “T 1 month Tambient content” value [2, 8] was 8.5. For the same substance, the “T 1 month Tambient (% in brackets)” value [2, 8] was “(95%)”, the “T 3 months 40° C. content” value ([2]; in Labrafac Hydro WL1219) was 4.2 and the “T 3 months 40° C. (% in brackets)” value ([2]; in Labrafac Hydro WL1219) was “(47%)”. The “T 3 months Tambient content” value ([2]; in Labrafac Hydro WL1219) was 6.3, the “T 3 months Tambient (% in brackets)” value ([2]; in Labrafac Hydro WL1219) was “(70%)” and the T0 content ([2]; in Labrasol (PEG-8 caprylic/capric glycerides)) was 8.1 mg/g. For the same substance, the “T 1 month 40° C. content” value ([2]; in Labrasol, 1 month) was 7.9, the “T 1 month 40° C. (% in brackets)” value ([2]; in Labrasol, 1 month) was “(98%)” and the “T 1 month Tambient content” value ([2]; in Labrasol, 1 month) was 8.1. The “T 1 month Tambient (% in brackets)” value ([2]; in Labrasol, 1 month) was “(100%)”, the “T 3 months 40° C. content” value ([2]; in Labrasol) was 5.6 and the “T 3 months 40° C. (% in brackets)” value ([2]; in Labrasol) was “(69%)”. The “T 3 months Tambient content” value ([2]; in Labrasol) was 8.1, the “T 3 months Tambient (% in brackets)” value ([2]; in Labrasol) was “(100%)” and the “T 1 month 40° C. content” value [2, 9] was 9.5. The “T 1 month 40° C. (% in brackets)” value [2, 9] was “(101%)”, the “T 1 month Tambient content” value [2, 9] was 9.5 and the “T 1 month Tambient (% in brackets)” value [2, 9] was “(101%)”. For the same substance, the “T 3 months 40° C. content” value [2, 10] was 9.7, the “T 3 months 40° C. (% in brackets)” value [2, 10] was “(103%)” and the “T 3 months Tambient content” value [2, 10] was 9.2. The “T 3 months Tambient (% in brackets)” value [2, 10] was “(98%)”, the T0 content [2, 10] was 9.4 mg/g and the “T 1 month 40° C. content” value ([2]; in Miglyol 812, 1 month) was 8.2. The “T 1 month 40° C. (% in brackets)” value ([2]; in Miglyol 812, 1 month) was “(94%)”, the “T 1 month Tambient content” value ([2]; in Miglyol 812, 1 month) was 8.3 and the “T 1 month Tambient (% in brackets)” value ([2]; in Miglyol 812, 1 month) was “(95%)”. For the same substance, the “T 3 months 40° C. content” value ([2]; in Miglyol 812) was 8.4, the “T 3 months 40° C. (% in brackets)” value ([2]; in Miglyol 812) was “(96%)” and the “T 3 months Tambient content” value ([2]; in Miglyol 812) was 8.3. For the same substance, the “T 3 months Tambient (% in brackets)” value ([2]; in Miglyol 812) was “(96%)”, the T0 content ([2]; in Miglyol 812) was 8.7 mg/g and the “Stability (in words)” value [2, 6] was “not perfectly stable”. For the same substance, the T0 content ([2]; in Ph90H (Phospholipon 90H) + benzyl alcohol) was 9.25 mg/g, the “T 1 month 40° C. content” value [2, 11] was 9.5 and the “T 1 month 40° C. (% in brackets)” value [2, 11] was “(103%)”. The “T 1 month Tambient content” value [2, 11] was 9.7, the “T 1 month Tambient (% in brackets)” value [2, 11] was “(105%)” and the T0 content [2, 7] was 9.8 mg/g. For the same substance, the “degradation at 1 month” value ([2]; in Solutol HS15, 1 month) was 28%, the “T 1 month 40° C. content” value ([2]; in Solutol HS15, 1 month) was 7.1 and the “T 1 month 40° C. (% in brackets)” value ([2]; in Solutol HS15, 1 month) was “(72%)”. The “T 1 month Tambient content” value ([2]; in Solutol HS15, 1 month) was 9.4, the “T 1 month Tambient (% in brackets)” value ([2]; in Solutol HS15, 1 month) was “(95%)” and the “Stability in a hydrophilic medium (in words)” value ([3]; hydrophilic medium) was “degraded”. The solubility in water ([3]; water) was 5 µg/mL and the “Stability in lipophilic excipients (in words)” value [4] was “degradation”.
